Measurements published in PMC7377239, “Cardiovascular Effects of Polychlorinated Biphenyls and Their Major Metabolites” (Environmental Health Perspectives, 2020).
Where two headings read alike, the source gives them in different places.

How the values were obtained:
[1] = system: HUVECs; assay: High-content imaging cytotoxicity in HUVECs, 24 h; type: cell-based, human; conditions: Homo sapiens, HUVEC, 24 h, HUVECs; for viability at 0.01 µM / activity at 0.01 µM: concentration 0.01 µM; for viability at 0.01 µM / activity at 0.01 µM / viability at 0.1 µM / activity at 0.1 µM / viability at 1 µM / activity at 1 µM / viability at 10 µM / activity at 10 µM / viability at 100 µM / activity at 100 µM: 0.00 µM = 100.00; for viability at 0.1 µM / activity at 0.1 µM: concentration 0.10 µM; for viability at 1 µM / activity at 1 µM: concentration 1.00 µM; for viability at 10 µM / activity at 10 µM: concentration 10.00 µM; for viability at 100 µM / activity at 100 µM: concentration 100.00 µM; for minimal effective concentration: MAX 100.00
Summary of the method: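 Confluent HUVEC monolayers, passages 1–5, received test chemicals for 24 h. Cytotoxicity was scored from triple-stain high-content images, with PODs defined by a one-SD deviation from 0.5% DMSO vehicle controls.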

[2] = system: HUVECs; assay: Tube formation (tubulogenesis) assay in HUVECs, 18 h; type: cell-based, human; conditions: Homo sapiens, HUVEC, 18 h, HUVECs tube formation; for activity at 0.01 µM: concentration 0.01 µM; for activity at 0.1 µM: concentration 0.10 µM; for activity at 1 µM: concentration 1.00 µM; for activity at 10 µM: concentration 10.00 µM; for activity at 100 µM: concentration 100.00 µM
Summary of the method: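 HUVECs (passage 1–5) seeded on reduced-growth-factor basement membrane and exposed to compounds overnight at 37°C, 5% CO2, in 2× maintenance medium with 12.5 ng/mL VEGF; 0.5% DMSO vehicle. Calcein AM-stained tube networks imaged and analysed; vehicle-normalized readouts fit to four-parameter logistic, POD set at one SD of vehicle means.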

[3] = 24 hr, read-out: huvec.cyto.24hr
[4] = 24 hr, read-out: huvec.mito.24hr
[5] = 24 hr, read-out: huvec.mitoint.24hr
[6] = 24 hr, read-out: huvec.nma.24hr
[7] = 24 hrs, read-out: huvec.tc.24hrs
[8] = 0.00 µM = 100.00, read-out: huvec.mtl.18hr
[9] = 0.00 µM = 100.00, read-out: huvec.tlps.18hr
[10] = 0.00 µM = 100.00, read-out: huvec.tta.18hr
[11] = 0.00 µM = 100.00, read-out: huvec.ttl.18hr

In the case of Clc1ccc(-c2cc(Cl)c(Cl)c(Cl)c2)cc1Cl [PCB126], the viability at 0.01 µM [1, 3] is reported as 86.8%, the activity at 0.01 µM [1, 4] is reported as 85.6% and the activity at 0.01 µM [1, 5] is reported as 89%. For the same compound, the activity at 0.01 µM [1, 6] was 94.2%, the viability at 0.1 µM [1, 3] was 93.4% and the activity at 0.1 µM [1, 4] was 92%. It also gave an activity at 0.1 µM [1, 5] of 79.3%, an activity at 0.1 µM [1, 6] of 93.5% and a viability at 1 µM [1, 3] of 93.8%. It also gave an activity at 1 µM [1, 4] of 92.5%, an activity at 1 µM [1, 5] of 83.6% and an activity at 1 µM [1, 6] of 95.2%. The viability at 10 µM [1, 3] was 91.2%, the activity at 10 µM [1, 4] was 89.7% and the activity at 10 µM [1, 5] was 74.2%. For the same compound, the activity at 10 µM [1, 6] was 93%, the viability at 100 µM [1, 3] was 57.1% and the activity at 100 µM [1, 4] was 55%. The activity at 100 µM [1, 5] was 96.7%, the activity at 100 µM [1, 6] was 84.5% and the minimal effective concentration ([1]; 24 hr, read-out: huvec.cyto.24hr POD) was 5.33 µM. For the same compound, the minimal effective concentration ([1]; 24 hr, read-out: huvec.mito.24hr POD) was 100 µM, the minimal effective concentration ([1]; 24 hr, read-out: huvec.mitoint.24hr POD) was 100 µM and the minimal effective concentration ([1]; 24 hr, read-out: huvec.nma.24hr POD) was 100 µM. For the same compound, the viability at 0.01 µM [1, 7] was 86.9%, the viability at 0.1 µM [1, 7] was 93.4% and the viability at 1 µM [1, 7] was 93.8%. It also gave a viability at 10 µM [1, 7] of 91.4%, a viability at 100 µM [1, 7] of 57.3% and a minimal effective concentration ([1]; 24 hrs, read-out: huvec.tc.24hrs POD) of 5.33 µM. The minimal effective concentration ([2]; MAX 100.00, read-out: huvec.mtl.18hr POD) was 100 µM, the minimal effective concentration ([2]; MAX 100.00, read-out: huvec.tlps.18hr POD) was 100 µM and the minimal effective concentration ([2]; MAX 100.00, read-out: huvec.tta.18hr POD) was 100 µM. The minimal effective concentration ([2]; MAX 100.00, read-out: huvec.ttl.18hr POD) was 100 µM, the activity at 0.01 µM [2, 8] was 93.6% and the activity at 0.01 µM [2, 9] was 51.1%. The activity at 0.01 µM [2, 10] was 51.1%, the activity at 0.01 µM [2, 11] was 53.8% and the activity at 0.1 µM [2, 8] was 98.7%. For the same compound, the activity at 0.1 µM [2, 9] was 67.7%, the activity at 0.1 µM [2, 10] was 80.9% and the activity at 0.1 µM [2, 11] was 84.3%. It also gave an activity at 1 µM [2, 8] of 87.8%, an activity at 1 µM [2, 9] of 61.4% and an activity at 1 µM [2, 10] of 77.3%. It also gave an activity at 1 µM [2, 11] of 83.6%, an activity at 10 µM [2, 8] of 89.6% and an activity at 10 µM [2, 9] of 52.3%. For the same compound, the activity at 10 µM [2, 10] was 94.3%, the activity at 10 µM [2, 11] was 100% and the activity at 100 µM [2, 8] was 83.2%. It also gave an activity at 100 µM [2, 9] of 59.4%, an activity at 100 µM [2, 10] of 92.7% and an activity at 100 µM [2, 11] of 88.9%.
